The values below come from patent publication US20160015034A1, “Co-Crystals of Pyrimethanil and Selected Dithiine Tetracarboximide” (BASF SE, priority 2013, published 2016).

Values after ≈ are worked out from the molar mass of the structure shown.

A short description of data set [1]: Water solubility by slurry equilibration and HPLC. In kind it is physicochemical. Conditions: pH 7, aqueous buffer, thermodynamic from solid. The protocol: Water Solubility of the Co-Crystals
The determination of the amount of the actives in solution was performed on HPLC ACQUITY (Water) system, equipped with PDA—230 nm UV detector and Sample Manager auto-injector.
Waters' Enpower software was used to record the chromatograms and to calculate the chromatographic parameters. Gradient elution (Acetonitrile—0.1% H3PO4) was achieved using C18 column, 50×2.1 mm, 1.7 μm BEH. Injection volume was set 1 μL by auto injector. The analysis were performed with rate flux of 0.4 ml/min. UV detection was performed at 245 nm. Peak identities were confirmed by spectrum and retention time comparison. All the analyses were performed at room temperature. All the analyzed solutions were prepared by slurry equilibration experiments. Particularly, water suspensions (KH2PO4/NaOH buffer having pH value of 7) of dithiine, pyrimethanil and the co-crystals were slurried for 1 hour, according with the maximum value of the intrinsic dissolution profile of the pure active. After 60 minutes small samples of about 1.0 ml were recovered with a syringe and filtered through a 0.1 micrometer PVDF Millipore filtration unit. Both solid phase and liquid phase were analyzed by XRPD and HPLC, respectively.

A short description of data set [2]: Isothermal TGA volatility study. It counts as physicochemical. Particulars: isothermal TGA at 100 C., nitrogen flow, weight loss monitored for 12 hours. The protocol: Isothermal Analysis of the Co-Crystals
TG/DTA measurement was carried out on a Seiko TG/DTA 7200 instrument. An open aluminium pan was used and the measurement was carried out under nitrogen flow with a sample weight of 5 to 10 mg. The isothermal TGA for volatility studies were performed at 100 C. and the weight loss was monitored for 12 hours.

By solubility is commonly meant how much of the substance goes into solution per volume. `Cc1cc(C)nc(Nc2ccccc2)n1` [pyrimethanil] registered a solubility at 1 h in data set [1] of 58 µg/mL (≈ 291 µM). In addition, the “TGA Volatility (% weight loss per minute)” value in data set [2] is on record as 1.20 × 10^−2 % weight loss per minute.

In data set [1], `Cn1c(=O)c2sc3c(=O)n(C)c(=O)c3sc2c1=O` gave a solubility at 1 h of 2 µg/mL (≈ 7.08 µM). The “TGA Volatility (% weight loss per minute)” value in data set [2] is 5.45 × 10^−3 % weight loss per minute.
